One data set has as its system WNV. The data set can be described thus: WNV antiviral assay. The format is cell-based, West Nile Virus. From the text: (§1) The use of N-(2,3-dihydro-1H-inden-5-yl)-2-(4-oxo-3-phenyl-3,4-dihydroquinazolin-2-yl)thio) acetamide, a compound employed according to the present disclosure, for treating West Nile Virus has been disclosed. For example, please see Chung et al. A Cell Based Assay for the Identification of Lead Compounds with Anti-Viral Activity Against West Nile Virus, Probe Reports from the NIH Molecular Libraries Program[Internet]. Bethesda (Md.): National Center for Biotechnology Information (US); 2010-2010 Feb. 27 [updated 2010 Oct. 4], PMID: 21433390 [PubMed].

The next data set deals with HCV Con1b (Replicon). Description: HCV Con1b (Replicon) Luciferase end-point. In kind it is cell-based, Hepatitis C Virus. Particulars: for CC50: read-out: TC50 (the source's name).
The test system of another data set is HCV Con 1b (Replicon). The data set can be described thus: HCV Con 1b (Replicon) RNA end-point. Particulars: for IC50 / CC50: HCV Con 1b replicon, RNA end-point; for CC50: read-out: TC50 (the source's name). The format is cell-based, Hepatitis C Virus. The method, then:
(§2) The reduction in HCV was determined with two assays using viral RNA endpoints. […] This cell line expresses a subgenomic section of the HCV genome containing NS2a, NS2b, NS3a, NS3b, NS4a, NS4b, NS5a and NS5b.

A short description of a further data set: WNV antiviral assay. In kind it is cell-based, West Nile Virus. Particulars: read-out: TC50 (the source's name).
Description: as §1

Data set [1] can be described thus: HCV Con 1b (Replicon) RNA end-point. In kind it is cell-based, Hepatitis C Virus. Particulars: HCV Con 1b subgenomic replicon cell line; HCV Con 1b replicon, RNA end-point; read-out: TC50 (the source's name). The method, then:
as §2

For the next data set, the system named is JEV. The data set can be described thus: JEV cell based virus CPE reduction assay. Details: species or system Japanese Encephalitis Virus. As to conditions: for CC50: read-out: TC50 (the source's name).
Description: as §1

Data set [2] can be described thus: HCV Con1b (Replicon) Luciferase end-point. In kind it is cell-based, Hepatitis C Virus. As to conditions: HCV Con1b subgenomic replicon cell line, read-out: TC50 (the source's name).
Data set [3] can be described thus: JEV cell based virus CPE reduction assay. Details: species or system Japanese Encephalitis Virus. As to conditions: read-out: TC50 (the source's name).
Description: as §1

Read-outs that look alike come from different tables or passages of the source. Some results are limits rather than exact numbers.

As to `O=C(CSc1nc2ccccc2c(=O)n1-c1ccc(F)c(Cl)c1)Nc1ccc2c(c1)CCC2` [Example C12, 2-[3-(3-chloro-4-fluorophenyl)-4-oxo(3-hydroquinazolin-2-ylthio)]-N-indan-5-ylacetamide], the values for the 50% inhibitory concentration (IC50) with WNV, against HCV Con1b (Replicon) and in the data set with HCV Con 1b (Replicon) were 5 to 25 µM, 1 to 5 µM and below 1 µM, respectively. The CC50 in the data set with WNV (read-out: TC50 (the source's name)) is at least 100 µM; in the data set on HCV Con1b (Replicon), at least 100 µM; in the data set on HCV Con 1b (Replicon), 50 to 100 µM.
For the compound `O=C(CSc1nc2ccccc2c(=O)n1-c1ccccc1)Nc1ccc2c(c1)CCC2` [Example C1], the IC50 with WNV (West Nile virus) and in the data set with HCV Con 1b (Replicon) (Hepatitis C virus) was 5 to 25 µM each time. Besides, the CC50 (in the data set “WNV antiviral assay”; in data set [1]) was at least 100 µM in each case. The “activity against Hepatitis C Virus” value in the data set on HCV Con 1b (Replicon) (text statement referring to Table 1) is “activity was observed”.
As for `COc1cccc2c(=O)n(-c3ccccc3)c(SCC(=O)Nc3ccc4c(c3)CCC4)nc12` [Example C17, N-indan-5-yl-2-(8-methoxy-4-oxo-3-phenyl(3-hydroquinazolin-2-ylthio))acetamide], the IC50 fell in the range of 1 to 5 µM against HCV Con1b (Replicon) and 5 to 25 µM with JEV. Moreover, the CC50 with HCV Con1b (Replicon) and with JEV was at least 100 µM throughout.
With `Cc1csc(NC(=O)CSc2nc3ccccc3c(=O)n2-c2ccc(Cl)c(Cl)c2)n1` [Example C24, 2-[3-(3,4-dichlorophenyl)-4-oxo(3-hydroquinazolin-2-ylthio)]-N-(4-methyl(1,3-thiazol-2-yl))acetamide], at HCV Con1b (Replicon), the IC50 fell in the range of 1 to 5 µM and the CC50 is at least 100 µM. In the data set on JEV, the IC50 lay within 5 to 25 µM and the CC50 is at least 100 µM.
As for `O=C(CSc1nc2cccc(F)c2c(=O)n1-c1ccccc1)Nc1ccc2c(c1)CCC2` [Example C15, 2-(5-fluoro-4-oxo-3-phenyl(3-hydroquinazolin-2-ylthio))-N-indan-5-ylacetamide], in the data set on HCV Con 1b (Replicon), the IC50 was 1 to 5 µM and the CC50 is at least 100 µM. Further, in the data set with JEV, the IC50 lay within 5 to 25 µM and the CC50 was at least 100 µM.
With `Cc1csc(NC(=O)CSc2nc3ccccc3c(=O)n2-c2ccc(Cl)c(Cl)c2)n1` [Example C8, 2-(3-(3,4-dichlorophenyl)-4-oxo-3,4-dihydroquinazolin-2-ylthio)-N-(4-methylthiazol-2-yl)acetamide], the 50% inhibitory concentration (IC50) lay in the range of 1 to 5 µM in the data set with HCV Con1b (Replicon) (Hepatitis C virus) and 5 to 25 µM with JEV (Japanese encephalitis virus). In addition, the CC50 in data set [2] and in data set [3] was at least 100 µM each time.
As to `O=C(CCSc1nc2ccccc2c(=O)n1-c1cc(F)c(F)c(F)c1)Nc1ccc2c(c1)CCC2` [Example C25, N-indan-5-yl-3-[4-oxo-3-(3,4,5-trifluorophenyl)(3-hydroquinazolin-2-ylthio)]propanamide], in the data set with JEV, the IC50 is 5 to 25 µM and the CC50 is at least 100 µM.

The values above are taken from patent US10611733B2, “Quinazolinone analogs and use of quinazolinone analogs for treating or preventing certain viral infections” (priority 2011, dated 2020).
